Paper PMC4230943, “Mimicking Hypoxia to Treat Anemia: HIF-Stabilizer BAY 85-3934 (Molidustat) Stimulates Erythropoietin Production without Hypertensive Effects” (PLoS ONE, 2014)

Assays:
cynomolgus monkeys = assay: 5-day repeat-dose study of plasma EPO response; type: in vivo, cynomolgus monkey
Procedure: Male and female cynomolgus monkeys (2.8–5.6 kg in body weight) were used, which were housed two per cage. Blood samples from conscious cynomolgus monkeys were taken by puncturing a superficial vein. In a 5-day, repeat-dose study of plasma EPO response, BAY 85-3934 was administered at doses of 0.5 mg/kg and 1.5 mg/kg at 0 h, 24 h, 48 h, 72 h, and 96 h. Blood samples were taken at 7 h, 31 h, 55 h, 79 h, 103 h, and 168 h. Erythropoietic parameters were also evaluated after a 2-week treatment period with s.c. administration of rhEPO (100 IU/kg twice weekly at days 1, 4, 8, and 11) and BAY 85-3934 (1.5 mg/kg) once daily.
(§1) EPO was measured in plasma samples taken from rodents using a commercial ELISA kit (R&D Systems), according to the manufacturer’s instructions. Relative plasma EPO levels were given in picograms per milliliter. In cynomolgus monkeys, EPO was measured using a combination anti-human EPO ELISAs (R&D Systems and Roche Diagnostics), with human EPO as a standard. Values were given as units per liter. For determination of plasma prorenin from rats, a commercial ELISA (Oxford Biomedical Research) was used according to the manufacturer’s instructions. Hemoglobin in rodent blood samples was determined on a Cell-Dyn 3700 apparatus (Abbott Diagnostics). BAY 85-3934 plasma concentrations were determined after protein precipitation with acetonitrile/ammonium acetate using an internal standard, followed by separation using HPLC/mass spectrometry.
A multiple-dose study in cynomolgus monkeys was conducted to evaluate whether repeat administration of BAY 85-3934 would result in EPO accumulation and/or adaptation of the EPO response. […] In all groups, EPO concentrations had returned to baseline concentrations 24 h after administration of the study drug. […] Platelet and white blood cell counts were unchanged. With respect to EPO induction, the 0.5 mg/kg dose was determined as the minimal effective dose in this study, although statistical significance versus control animals was not reached in this small and heterogeneous animal cohort.

[1] = BAY 85-3934 plasma levels after oral administration; type: in vivo, rat
Procedure: Male Wistar rats (240–340 g in body weight) were housed with five animals per cage for at least 1 week before experimentation. Blood samples from rats were collected under anesthesia (2% isoflurane in air) by puncturing the retro-orbital vein plexus with a glass capillary. In a repeat-dose, 26-day experiment, animals were administered vehicle or BAY 85-3934 at doses of 0.5 mg/kg, 1.25 mg/kg, 2.5 mg/kg, and 5 mg/kg. PCV was determined at baseline and at weekly intervals after centrifugation in a hematocrit capillary tube (Brand) for 10 min at full speed in a Haemofuge centrifuge (Heraeus). The number of reticulocytes in 5 µl blood was counted after staining with thiazol orange (Becton Dickinson) according to the manufacturer’s instructions by FACS analysis on a BD FACSCalibur system (Becton Dickinson). The efficacy of BAY 85-3934 (2.5 mg/kg, once-daily, oral) was also compared with that of rhEPO (25 IU/kg, 50 IU/kg, and 100 IU/kg, twice-weekly, s.c. injection). The time-course of induction of EPO mRNA expression and plasma EPO was determined at baseline and 0.5 h, 1 h, 2 h, 4 h, 6 h, and 8 h after oral administration of a single dose of BAY 85-3934 (5 mg/kg).
as §1

[2] = system: male Wistar rats treated with gentamicin; assay: Gentamicin-induced kidney failure (renal anemia) model; type: in vivo, rat
Procedure: Male Wistar rats were treated once daily with gentamicin (Gibco/Invitrogen) at a dose of 100 mg/kg body weight via i.p. injection on 14 consecutive days, [35]. Control animals received injections of an equal volume of 0.9% saline. After gentamicin treatment, PCV was determined and animals were distributed to the vehicle or treatment groups with respect to equal mean PCV. On day 15, BAY 85-3934 was given orally once daily at doses of 1 mg/kg, 2.5 mg/kg, 5.0 mg/kg, and 10.0 mg/kg, five times weekly.
as §1
Total RNA was extracted from shock-frozen cell or tissue samples using the TRIzol method. Integrity of obtained RNA was checked on a Bioanalyzer (Agilent Technologies). For reverse transcription, 1 µg of total RNA was digested with RNase-free DNase I (Gibco) for 15 min at room temperature, and then reverse-transcribed using Promiscript (Promega GmbH) in a total reaction volume of 40 µl according to the standard protocol of the supplier. After inactivation of the enzyme by heating to 65°C for 15 min, the obtained cDNA was diluted to a final volume of 150 µl with double-distilled water, and 4 µl used per PCR reaction. qRT-PCR, including normalization of raw data to cytosolic β-actin, was carried out as described previously. The resulting expression is given in arbitrary units.
The effect of BAY 85-3934 on the induction of endogenous EPO production was evaluated in an animal model of impaired kidney function, the gentamicin-induced kidney failure model. A mean creatinine clearance of 30% of that of untreated animals and high expression levels of several markers of acute and chronic kidney injury were indicative of substantial renal impairment in these animals. […] The mean absolute levels of induction were lower in the gentamicin-treated animals than in the controls.

With `O=c1c(-n2ccnn2)c[nH]n1-c1cc(N2CCOCC2)ncn1` [BAY 85-3934, 2-[6-(morpholin-4-yl)pyrimidin-4-yl]-4-(1H-1,2,3-triazol-1-yl)-1,2-dihydro-3H-pyrazol-3-one] the “plasma EPO 7 h after administration” value (cynomolgus monkeys; 1.5 mg/kg oral, all animals) was “significantly induced”, the “time after administration at which EPO had returned to baseline” value (cynomolgus monkeys; 0.5 and 1.5 mg/kg, all groups) was 24 h and the “adaptation of the EPO response after repeated dosing” value (cynomolgus monkeys; once daily for 5 days) was “no adaptation”. The “platelet and white blood cell counts” value (cynomolgus monkeys; once daily for 5 days) was “unchanged”, the “minimal effective dose for EPO induction” value (cynomolgus monkeys; statistical significance versus control not reached) was 0.5 mg/kg and the “fraction of BAY 85-3934 eliminated from the plasma” value ([1]; 6 h after 5 mg/kg oral) was roughly 90%. The half-life ([1]; rat, plasma, oral, 5 mg/kg, male Wistar rats) was 3.4 h, the bioavailability ([1]; rat, plasma, po, 5 mg/kg, male Wistar rats) was roughly 38% and the “time after onset of treatment for mean PCV to return to baseline” value ([2]; 2.5 mg/kg) was no more than 2 weeks. The “mean PCV” value ([2]; 5 mg/kg and 10 mg/kg, 5 days per week, final values higher than control, p<0.001) was “prevented the decline in mean PCV”, the “kidney EPO mRNA expression” value ([2]; 4 h after oral administration) was “increased dose-dependently” and the “plasma EPO levels” value ([2]; 4 h after oral administration) was “significantly and dose-dependently induced”. For the same compound, the hemoglobin values ([2]; 7 days after the start of treatment) was “significant dose-dependent increase”, the reticulocyte counts ([2]; all doses, data not shown) was “increase in reticulocyte counts” and the “doses giving significant induction of liver EPO mRNA” value ([2]; control group (no gentamicin)) was no less than 2.5 mg/kg. For the same compound, the “doses giving significant induction of liver EPO mRNA” value ([2]; gentamicin-treated animals) was no less than 5 mg/kg and the “expression of other HIF target genes in kidney and liver” value ([2]; oral administration) was “no dose-response”.
